Source: patent US8003610B2, “Bradykinin B2 receptor antagonist peptide from amphibian skin” (priority 2003, dated 2011)
pKd: −log10 of the molar value. Square brackets hold non-standard residues; d marks the D form. Ends that are not written are not given here. pGlu = O=C1CC[C@@H](C(=O)O)N1

Legend:
[1] = tested on: endothelial tube structures on Matrigel matrix plates; experiment: Matrigel tube formation assay; format: cell-based; details: FIG. 8
Excerpt: FIG. 8 is a graph comparing the ability of kinestatin (▪) and fumagillin (▴) to inhibit the formation of endothelial tube structures on Matrigel matrix plates.

[2] = tested on: human microvascular endothelial cell line (HMEC-1); experiment: proliferation of endothelial cell line; format: cell-based; details: FIG. 11
Excerpt: FIG. 11 is a graph comparing the effect of control (▪), kinestsin (Q-9-R-(-7) (▴) and fumagillin (▾) on the proliferation of the human microvascular endothelial cell line (HMEC-1).

[3] = tested on: human microvascular endothelial cells (HMEC-1); experiment: endothelial cell migration into 1 cm wound in cell monolayer; format: cell-based
Description: FIG. 9 is a graph comparing the ability of kinestatin (▪) and fumagillin (▾) to inhibit the migration of human microvascular endothelial cells (HMEC-1) into a wound in a dose- and time-dependent manner
FIG. 10 is a time response curve showing the delay in complete closure of endothelial cell 1 cm wounds in the presence of kinestatin (▪) and non-treated control cells (▴).
Expt. […] Kinestatin prolonged wound closure time by 100% from 7 h (control) to 14 h (treatment) (FIG. 10).

B1-receptor = biological target: T1, B1-receptor (Oryctolagus cuniculus, UniProt P48748); details: cited from earlier work
T1 construct: in B1-receptor-rich preparations, such as the rabbit aorta; host or cells: rabbit aorta tissue preparation
T1 sequence (P48748 1-352): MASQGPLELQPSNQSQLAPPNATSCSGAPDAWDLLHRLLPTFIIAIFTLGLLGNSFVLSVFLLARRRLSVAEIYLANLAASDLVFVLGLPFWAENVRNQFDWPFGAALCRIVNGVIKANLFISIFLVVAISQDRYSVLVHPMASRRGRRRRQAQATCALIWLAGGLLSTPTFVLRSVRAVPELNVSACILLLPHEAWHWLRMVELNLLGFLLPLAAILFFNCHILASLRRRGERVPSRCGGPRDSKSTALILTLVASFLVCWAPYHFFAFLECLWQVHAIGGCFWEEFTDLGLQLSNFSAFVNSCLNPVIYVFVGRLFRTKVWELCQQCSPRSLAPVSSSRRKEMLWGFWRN

[4] = tested on: recombinantly-expressed receptor (of ornithokinin); details: cited from earlier work
[5] = tested on: rat tail artery smooth muscle; experiment: direct relaxation of phenylephrine pre-constricted rat tail artery preparation; details: synthetic replicate, in the effective molar concentration range of bradykinin, FIG. 4A
Description: Male albino Wistar rats (200-250 g) were euthanised by asphyxiation followed by cervical dislocation. The tail artery was prepared as described previously (Chen T et al, Peptides. 2002; 23:1547-1555, Chen T et al, Eur. J. Biochem. 2002; 269:4693-4700, Hirst et al Br. J. Radiol. 1994; 67:795-799). After perfusion of arterial preparations with 1×10^−5M phenylephrine to obtain constriction plateaux, relative relaxation was recorded as described below following applications of reconstituted 100 μl aliquots of HPLC fraction samples (1-240) from B. maxima skin secretion. This was carried out to exclude those fractions (25) containing direct arterial smooth muscle relaxant activity. […] Changes in arterial smooth muscle tone were measured by a pressure transducer system and the percentage relative relaxations induced by bradykinin in the presence of reconstituted fractions were calculated using the MacLab computer package.
Arterial smooth muscle preparations were prepared as described previously and treated with phenylephrine (1×10^−5M) until constriction plateaux were achieved. […] 2) The effect of prior addition of a range of concentrations of kinestatin on the observed activity of subsequently added bradykinin at its maximally effective concentration (10^−6M) was determined. […] During a 20 min perfusion period, changes in arterial pressure were recorded as described previously. […]

bradykinin B2 receptors = biological target: T2, bradykinin B2 receptors (Rattus norvegicus, UniProt P25023); experiment: inhibition of bradykinin-induced relaxation in phenylephrine pre-constricted rat tail artery preparation
T2 construct: phenylephrine pre-constricted rat tail artery preparation; from tissue; host or cells: rat tail artery (arterial smooth muscle preparation)
T2 sequence (P25023 1-396): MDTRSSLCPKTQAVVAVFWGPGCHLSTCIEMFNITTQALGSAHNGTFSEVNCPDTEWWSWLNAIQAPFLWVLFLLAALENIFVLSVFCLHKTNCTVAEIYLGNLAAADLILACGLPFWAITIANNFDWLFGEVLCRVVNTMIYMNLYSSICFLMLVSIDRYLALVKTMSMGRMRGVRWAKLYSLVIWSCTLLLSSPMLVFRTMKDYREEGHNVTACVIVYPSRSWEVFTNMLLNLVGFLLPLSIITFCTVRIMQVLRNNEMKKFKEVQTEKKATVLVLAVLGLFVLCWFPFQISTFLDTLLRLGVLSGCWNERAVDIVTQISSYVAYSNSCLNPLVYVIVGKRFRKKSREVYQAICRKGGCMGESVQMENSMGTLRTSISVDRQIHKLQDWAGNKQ
Description: Male albino Wistar rats (200-250 g) were euthanised by asphyxiation followed by cervical dislocation. The tail artery was prepared as described previously (Chen T et al, Peptides. 2002; 23:1547-1555, Chen T et al, Eur. J. Biochem. 2002; 269:4693-4700, Hirst et al Br. J. Radiol. 1994; 67:795-799). After perfusion of arterial preparations with 1×10^−5M phenylephrine to obtain constriction plateaux, relative relaxation was recorded as described below following applications of reconstituted 100 μl aliquots of HPLC fraction samples (1-240) from B. maxima skin secretion. […] The preparations were perfused as before with phenylephrine (1×10^−5M) until constriction plateaux were obtained. Following this, combinations of phenylephrine (1×10^−5M) and reconstituted non-myoactive fractions were perfused through individual preparations for 20 min. Immediately after this, the perfusate was replaced by a combination of phenylephrine (1×10^−5M), bradykinin (1×10^−6M) and reconstituted individual fractions. Changes in arterial smooth muscle tone were measured by a pressure transducer system and the percentage relative relaxations induced by bradykinin in the presence of reconstituted fractions were calculated using the MacLab computer package.
Arterial smooth muscle preparations were prepared as described previously and treated with phenylephrine (1×10^−5M) until constriction plateaux were achieved. Following this a series of experiments were performed to address the pharmacological characterization of the novel peptide, kinestatin. 1) Separate dose response curves were constructed for bradykinin and kinestatin using concentrations of both peptides in the range of 10^−11 to 10^−5M. […] The preparations were prepared as described before. […] Following this, phenylephrine (1×10^−5M) was added to the antagonist solution and perfused for 10 min to develop contraction of the arterial smooth muscle. On obtaining stable plateaux of constriction, the perfusate was replaced by another containing phenylephrine, antagonist and bradykinin (1×10^−6M). During a 20 min perfusion period, changes in arterial pressure were recorded as described previously. In a second similar series of experiments, kinestatin (1×10^−8M) was added to each of the specific bradykinin receptor sub-type antagonist solutions prior to the procedure described above. Data were analysed by computer using Students t test available on the Graph Pad Prism™ programme.

[6] = biological target: autologous receptor (of ornithokinin) cloned from chicken; details: (Tyr^0)-radioiodinated ornithokinin as competing ligand; read-out: affinity; cited from earlier work

Compound: CO[C@@H]1[C@H](OC(=O)/C=C/C=C/C=C/C=C/C(=O)O)CC[C@]2(CO2)[C@H]1[C@@]1(C)O[C@@H]1CC=C(C)C [fumagillin, reference compound]
- effect on tube formation [1]: inhibitory effect
- cell proliferation [2]: profound effects on inhibition of cell proliferation
- maximal inhibitory effect on migration ([3]; FIG. 9): same maximal inhibitory effect

Compound: RPPGFSPLR [Leu^8-bradykinin, bradykinin analogue, found in pickerel frog skin]
- antagonism of bradykinin and des-Arg^9 bradykinin (B1-receptor; B1-receptor-rich preparations, rabbit aorta): potent antagonist
- bradykinin agonist activity (B1-receptor; previous pharmacological studies): devoid of bradykinin agonist activity

Compound: Arg-Arg-Pro-Hyp-Gly-Thi-Ser-Tic-Oic-Arg [HOE-140]
- function at receptor [4]: partial agonist

Compound: pGlu-Ile-Pro-Gly-Leu-Gly-Pro-Leu-Arg.NH2 ([pGlu]IPGLGPLR-NH2; SMILES CC[C@H](C)[C@H](NC(=O)[C@@H]1CCC(=O)N1)C(=O)N1CCC[C@H]1C(=O)NCC(=O)N[C@@H](CC(C)C)C(=O)NCC(=O)N1CCC[C@H]1C(=O)N[C@@H](CC(C)C)C(=O)N[C@@H](CCCNC(=N)N)C(N)=O; listed as Bombina maxima) [kinestatin, bradykinin B2 receptor antagonist nonapeptide from skin secretion of Bombina maxima; synthetic replicate tested]
- effect on tube formation [1]: inhibitory effect
- cell proliferation [2]: profound effects on inhibition of cell proliferation
- myorelaxant activity [5]: devoid of myorelaxant activity
- potency as bradykinin antagonist relative to Leu^8 bradykinin (bradykinin B2 receptors): ~10 ×
- inhibition of bradykinin-induced relaxation in HOE 140-treated preparations (bradykinin B2 receptors; kinestatin 1×10^−8M added, HOE 140 3×10^−7M, p=0.0015, n=6): significant inhibition
- inhibition of bradykinin-induced relaxation in des Arg HOE 140-treated preparations (bradykinin B2 receptors; kinestatin 1×10^−8M added, des Arg HOE 140 3×10^−7M, p=0.033, n=6): significant inhibition
- effect on bradykinin-induced relaxation dose response curve (bradykinin B2 receptors; kinestatin at 1×10^−8M, FIG. 4C): Virtual total abolition
- maximally inhibitory concentration (bradykinin B2 receptors; prior addition, bradykinin dose response): 10^−8 M
- receptor mediating the inhibition (bradykinin B2 receptors; rat tail arterial smooth muscle): antagonism at B2 receptors
- block of maximal bradykinin relaxing activity (bradykinin B2 receptors; ten nanomolar kinestatin, one micromolar bradykinin): almost totally blocked
- mechanism of inhibition (bradykinin B2 receptors; within this concentration range): non-competitive mechanism
- maximal inhibitory effect on migration ([3]; FIG. 9): same maximal inhibitory effect
- potency relative to fumagillin ([3]; FIG. 9): more potent on a molar basis
- endothelial cell migration ([3]; time to half closure of 1 cm wide wound): inhibition in endothelial cell migration
- wound closure time ([3]; treatment, FIG. 10): 14 h
- prolongation of wound closure time ([3]; versus control, FIG. 10): 100%

Compound: RPPGFTPLR [ornithokinin]
- pKd [6]: 8.33
